Experimental data published in patent US20080280837A1, “Biologically Active Compounds with Anti-Angiogenic Properties” (priority 2004, published 2008).

target: T1, Human SST5 somatostatin receptor (SSTR5) (Homo sapiens, UniProt P35346); assay: Filter plate assay for SST5 receptor, displacement of [125I]SST-14; assay type: binding; settings: 0.5 uM
T1 construct: expressed in transfected cells; host or cells: HEK-293 EBNA
Procedure: Receptor membrane preparations containing the desired cloned receptor (for example cloned human somatostatin receptor subtype 5, SSTR5) and radio-labeled ligand (for example 3-[^125I]iodotyrosyl^11 Somatostatin-14)) were diluted at the concentration required for testing and according to the specific parameters associated with the selected receptor-ligand combination, including receptor Bmax, ligand Kd and any other parameters necessary to optimize the experimental conditions. When tested for competition activity to the reference ligand, “compound 1” was mixed with membrane suspension and the radiolabeled reference ligand (with or without an excess of cold ligand to the receptor for determination of non-specific binding) and incubated at the temperature required by internal standard operating procedures. Following incubation, the binding reaction was stopped by the addition of ice-cold washing buffer and filtered on appropriate filters, which are then counted. Data analysis and curve-fitting was performed with XLfit (IDBS).
10 mM solutions of test compounds in 100% DMSO were prepared. ˜160 μl was used for each dilution (20 μl/well in triplicate).
A 1.25 mM assay stock was prepared by making a 1:8 dilution of the 10 mM solution. (To 30 μL of the 10 mM solution was added 210 μL milli-Q H2O. A 1:5 dilution series in milli-Q H2O was then prepared.
Assays were performed in triplicate at each concentration within the 1:5 dilution series: 250 μM, 50 μM, 10 μM, […], 0.4 μM, 0.08 μM, 0.016 μM, 0.0032 μM, etc. (for SST4 assay) and 125 μM, 10 μM, 2 μM, 1 μM, 0.5 μM, etc (for SST5 assay).
Human SST5 somatostatin receptor was transfected into HEK-293 EBNA cells. Membranes were suspended in assay buffer (50 mM Tris-HCl, 1 mM EGTA, 5 mM MgCl2, 10% sucrose, pH 7.5).
After thawing the frozen receptor preparation rapidly, receptors were diluted with binding buffer, homogenized, and kept on ice. • 1. Use Multiscreen glass fiber filter plates (Millipore, Cat No MAFCNOB10) precoated with o.5% PEI for ˜2 hr at 4° C. Before use add 200 μl/well assay buffer and filter using Multiscreen Separation System. • 2. Incubate 5.5 μg of membranes (40 μl of a 1:40 dilution), buffer and [^125I]SST-14 (4 nM, ˜80 000 cpm, 2000 Ci/mmol) in a total volume of 200 μl for 60 min at 25° C. […] Prepare serial dilutions (1:5) of compounds, as described above and instead of adding SST-14 in well, add 20 μl of compounds (Table 1). • 3. Filter using Multiscreen Separation System with 5×0.2 ml ice-cold Assay buffer. • 4. Remove the plastic underdrain and dry plate in oven for 1 hr at 40° C. • 5. Seal tape to the bottom of the plate. • 6. Add 50 μl/well scintillant (Supermix, Wallac, Cat No 1200-439). • 7. Seal and count in the BJET, program 2.
In primary screening experiments compounds were tested in duplicate for a particular concentration.

T1 sequence (P35346 whole entry): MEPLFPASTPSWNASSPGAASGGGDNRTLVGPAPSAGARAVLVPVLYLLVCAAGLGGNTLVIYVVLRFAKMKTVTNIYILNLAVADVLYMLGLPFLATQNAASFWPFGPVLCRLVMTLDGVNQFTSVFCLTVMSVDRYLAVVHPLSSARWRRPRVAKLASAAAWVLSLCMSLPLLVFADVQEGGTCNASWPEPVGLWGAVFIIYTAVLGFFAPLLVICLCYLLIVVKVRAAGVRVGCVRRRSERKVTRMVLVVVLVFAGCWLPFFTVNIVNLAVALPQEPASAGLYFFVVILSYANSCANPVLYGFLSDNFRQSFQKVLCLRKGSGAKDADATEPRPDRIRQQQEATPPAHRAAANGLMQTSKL

Point of comparison: COC[C@H]1OC(OCc2ccccc2)[C@H](NC(=O)CCCN)[C@@H](OCc2ccc(-c3ccccc3)cc2)[C@@H]1O (stereo partly shown) [Compound 95], “SSTR5 Inhib 0.5 uM % (inhibition of binding of SST-14 to SSTR5)” value 44%. Against it:
- COC1C(O)C(COCc2ccc3ccccc3c2)OC(OCc2ccc3ccccc3c2)C1NC(=O)CCCN (stereo not shown) [Compound 81] — higher, 60%
- COC[C@H]1OC(OCc2ccc3ccccc3c2)[C@H](NC(=O)CCCN)[C@@H](OCc2cccc(O)c2)[C@@H]1O (stereo partly shown) [Compound 82] — higher, 48%
- CSC1OC(COCc2ccc(Cl)cc2)C(O)C(OCc2ccc(-c3ccccc3)cc2)C1NC(=O)CN (stereo not shown) [Compound 83] — higher, 61%
- COC[C@H]1OC(OCc2ccc3ccccc3c2)[C@H](NC(=O)CCNC(=N)N)[C@H](OCc2ccccc2)[C@@H]1O (stereo partly shown) [Compound 85] — higher, 54%
- COC[C@H]1OC(OCc2ccc3ccccc3c2)[C@H](NC(=O)CCNC(=N)N)[C@@H](OCc2ccc(-c3ccccc3)cc2)[C@@H]1O (stereo partly shown) [Compound 86] — higher, 58%
- COC[C@H]1OC(OCc2ccccc2)[C@H](NC(=O)CCNC(=N)N)[C@H](OCc2ccc(-c3ccccc3)cc2)[C@@H]1O (stereo partly shown) [Compound 87] — lower, 43%
- COC[C@H]1OC(OCc2ccc3ccccc3c2)[C@H](NC(=O)CNC(=N)N)[C@@H](OCc2ccc(-c3ccccc3)cc2)[C@@H]1O (stereo partly shown) [Compound 88] — higher, 63%
- CSC1O[C@H](COCc2ccc3ccccc3c2)[C@@H](O)[C@@H](OCc2ccccc2)[C@H]1NC(=O)CCNC(=N)N (stereo partly shown) [Compound 89] — higher, 58%
- COC[C@H]1OC(OCc2ccc(Cl)cc2)[C@H](NC(=O)CCCN)[C@@H](OCc2ccc(-c3ccccc3)cc2)[C@@H]1O (stereo partly shown) [Compound 90] — higher, 52%
- CSC1O[C@H](COCc2ccccc2)[C@@H](O)[C@@H](OCc2ccc3ccccc3c2)[C@H]1NC(=O)CCCNC(=N)N (stereo partly shown) [Compound 91] — higher, 53%
- COC[C@H]1OC(OCc2ccc3ccccc3c2)[C@H](NC(=O)CCCN)[C@H](OCc2ccccc2)[C@@H]1O (stereo partly shown) [Compound 92] — higher, 52%
- COC[C@H]1OC(OCc2ccc(-c3ccccc3)cc2)[C@H](NC(=O)CCCNC(=N)N)[C@@H](OCc2ccc(Cl)cc2)[C@@H]1O (stereo partly shown) [Compound 93] — higher, 47%
- CSC1O[C@H](COCc2ccccc2)[C@@H](O)[C@@H](OCc2ccc(-c3ccccc3)cc2)[C@H]1NC(=O)CCCN (stereo partly shown) [Compound 94] — higher, 45%
- COC[C@H]1OC(OCc2ccc(Cl)cc2)[C@H](NC(=O)CCCNC(=N)N)[C@@H](OCc2ccc(-c3ccccc3)cc2)[C@@H]1O (stereo partly shown) [Compound 96] — lower, 43%
- CSC1O[C@H](COCc2ccc3ccccc3c2)[C@@H](O)[C@@H](OCc2ccc(-c3ccccc3)cc2)[C@H]1NC(=O)CN (stereo partly shown) [Compound 97] — lower, 41%
- COC[C@H]1OC(OCCc2ccccc2)[C@H](NC(=O)CCCNC(=N)N)[C@@H](OCc2ccc(Cl)cc2)[C@@H]1O (stereo partly shown) [Compound 98] — higher, 55%

same assay, conditions: 10 uM

Point of comparison: COC[C@H]1OC(OCc2ccc3ccccc3c2)[C@H](NC(=O)CCNC(=N)N)[C@@H](OCc2ccc(-c3ccccc3)cc2)[C@@H]1O (stereo partly shown) [Compound 86], “SSTR5 Inhib 10 uM % (inhibition of binding of SST-14 to SSTR5)” value 87%. Against it:
- COC1C(O)C(COCc2ccc3ccccc3c2)OC(OCc2ccc3ccccc3c2)C1NC(=O)CCCN (stereo not shown) [Compound 81] — the same, 87%
- COC[C@H]1OC(OCc2ccc3ccccc3c2)[C@H](NC(=O)CCCN)[C@@H](OCc2cccc(O)c2)[C@@H]1O (stereo partly shown) [Compound 82] — the same, 87%
- CSC1OC(COCc2ccc(Cl)cc2)C(O)C(OCc2ccc(-c3ccccc3)cc2)C1NC(=O)CN (stereo not shown) [Compound 83] — the same, 87%
- COC[C@H]1OC(OCc2ccc3ccccc3c2)[C@H](NC(=O)CCNC(=N)N)[C@H](OCc2ccccc2)[C@@H]1O (stereo partly shown) [Compound 85] — the same, 87%
- COC[C@H]1OC(OCc2ccccc2)[C@H](NC(=O)CCNC(=N)N)[C@H](OCc2ccc(-c3ccccc3)cc2)[C@@H]1O (stereo partly shown) [Compound 87] — lower, 86%
- COC[C@H]1OC(OCc2ccc3ccccc3c2)[C@H](NC(=O)CNC(=N)N)[C@@H](OCc2ccc(-c3ccccc3)cc2)[C@@H]1O (stereo partly shown) [Compound 88] — lower, 86%
- CSC1O[C@H](COCc2ccc3ccccc3c2)[C@@H](O)[C@@H](OCc2ccccc2)[C@H]1NC(=O)CCNC(=N)N (stereo partly shown) [Compound 89] — lower, 86%
- COC[C@H]1OC(OCc2ccc(Cl)cc2)[C@H](NC(=O)CCCN)[C@@H](OCc2ccc(-c3ccccc3)cc2)[C@@H]1O (stereo partly shown) [Compound 90] — lower, 86%
- CSC1O[C@H](COCc2ccccc2)[C@@H](O)[C@@H](OCc2ccc3ccccc3c2)[C@H]1NC(=O)CCCNC(=N)N (stereo partly shown) [Compound 91] — lower, 86%
- COC[C@H]1OC(OCc2ccc3ccccc3c2)[C@H](NC(=O)CCCN)[C@H](OCc2ccccc2)[C@@H]1O (stereo partly shown) [Compound 92] — lower, 86%
- COC[C@H]1OC(OCc2ccc(-c3ccccc3)cc2)[C@H](NC(=O)CCCNC(=N)N)[C@@H](OCc2ccc(Cl)cc2)[C@@H]1O (stereo partly shown) [Compound 93] — lower, 86%
- CSC1O[C@H](COCc2ccccc2)[C@@H](O)[C@@H](OCc2ccc(-c3ccccc3)cc2)[C@H]1NC(=O)CCCN (stereo partly shown) [Compound 94] — lower, 86%
- COC[C@H]1OC(OCc2ccccc2)[C@H](NC(=O)CCCN)[C@@H](OCc2ccc(-c3ccccc3)cc2)[C@@H]1O (stereo partly shown) [Compound 95] — lower, 85%
- COC[C@H]1OC(OCc2ccc(Cl)cc2)[C@H](NC(=O)CCCNC(=N)N)[C@@H](OCc2ccc(-c3ccccc3)cc2)[C@@H]1O (stereo partly shown) [Compound 96] — lower, 85%
- CSC1O[C@H](COCc2ccc3ccccc3c2)[C@@H](O)[C@@H](OCc2ccc(-c3ccccc3)cc2)[C@H]1NC(=O)CN (stereo partly shown) [Compound 97] — lower, 85%
- COC[C@H]1OC(OCCc2ccccc2)[C@H](NC(=O)CCCNC(=N)N)[C@@H](OCc2ccc(Cl)cc2)[C@@H]1O (stereo partly shown) [Compound 98] — lower, 84%
